# Assay results: US9777005B2 (Takeda Pharmaceutical Company Limited, priority 2012, dated 2017)
# Target: T1, human M1 receptor (hCHRM1) (Homo sapiens, UniProt P11229)
# T1 construct: expressed in transfected cells; host or cells: CHO-K1
# T1 sequence (P11229 1-460): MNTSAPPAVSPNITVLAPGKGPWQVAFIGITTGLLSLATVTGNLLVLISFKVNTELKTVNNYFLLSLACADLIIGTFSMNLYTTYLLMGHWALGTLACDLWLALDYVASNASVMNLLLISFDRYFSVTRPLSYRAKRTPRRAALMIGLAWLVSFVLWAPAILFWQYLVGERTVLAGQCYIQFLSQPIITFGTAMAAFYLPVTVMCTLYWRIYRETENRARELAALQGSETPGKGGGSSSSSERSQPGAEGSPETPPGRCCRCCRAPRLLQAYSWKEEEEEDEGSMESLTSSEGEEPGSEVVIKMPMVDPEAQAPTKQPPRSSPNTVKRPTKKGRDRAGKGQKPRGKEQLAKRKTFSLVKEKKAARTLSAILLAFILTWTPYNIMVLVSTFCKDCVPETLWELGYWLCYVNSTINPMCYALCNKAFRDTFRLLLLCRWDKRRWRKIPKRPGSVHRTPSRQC
# Assay: Measurement of M1 receptor positive allosteric modulator (M1PAM) activity, calcium fluorescence (FLIPRtetra) in CHO-K1 cells in the presence of acetylcholine at EC20
# Format: cell-based
# Conditions: in the presence of acetylcholine at EC20 (final 0.6 nM), CHO-K1 cells expressing hCHRM1; for EC50: inflection point of M1PAM activity, read-out: IP value; for activity (%) at 10 μM: test compound 10 μM
# Description: Measurement of M1 Receptor Positive Allosteric Modulator (M1PAM) Activity
# The activity of a test compound in the presence of acetylcholine at EC20 concentration (final concentration 0.6 nM), which affords an action corresponding to 20% of the maximum activity, was measured as PAM activity. The method is as follows. CHO-K1 cells forcibly expressing a human M1 receptor (hCHRM1) were plated on a 384-well black clear bottom plate (BD Falcon) at 5,000 cells/well, and cultured in an incubator at 37° C., 5% CO2 for 1 day. The medium in the cell plate was removed, and assay buffer A (Recording medium (DOJINDO LABORATORIES), 0.1% BSA (Wako Pure Chemical Industries, Ltd.), 2.5 μg/mL Fluo-4 AM (DOJINDO LABORATORIES), 0.08% Pluronic F127 (DOJINDO LABORATORIES), 1.25 mM probenecid (DOJINDO LABORATORIES)) containing a calcium indicator was added at 30 μL/well. The cells were left standing in the incubator at 37° C., 5% CO2 for 30 min, and further left standing at room temperature for 30 min. A test compound prepared by diluting with assay buffer B (HBSS (Invitrogen), 20 mM HEPES (Invitrogen), 0.1% BSA) containing 2.4 nM acetylcholine was added at 10 μL/well, and the fluorescence was measured by FLIPRtetra (Molecular Devices) for 1 min every 1 second. With the definition that the amount of change in the fluorescence on addition of acetylcholine (final concentration 1 μM) is 100% and that on addition of DMSO instead of a test compound is 0%, the activity (%) of the test compound and the inflection point in the concentration-dependent curve of the test compound were calculated as IP values.
Compound,EC50,activity (%) at 10 μM
"O=C1c2c(O[C@@H]3CCCC[C@H]3O)ccc(F)c2CN1Cc1ccc(-n2cccn2)cc1 (relative stereo) [Example 223, 4-fluoro-7-((trans-2-hydroxycyclohexyl)oxy)-2-(4-(1H-pyrazol-1-yl)benzyl)isoindolin-1-one]",19 nM,103%
"Cc1cc(-c2ccc(CN3Cc4cccc(O[C@H]5CCC[C@@H]5O)c4C3=O)cc2)ccn1 (relative stereo) [Example 224, 7-((trans-2-hydroxycyclopentyl)oxy)-2-(4-(2-methylpyridin-4-yl)benzyl)isoindolin-1-one]",38 nM,107%
"Cc1nn(C)cc1-c1ccc(CN2Cc3cccc(O[C@H]4CCC[C@@H]4O)c3C2=O)cc1 (relative stereo) [Example 226, 2-(4-(1,3-dimethyl-1H-pyrazol-4-yl)benzyl)-7-((trans-2-hydroxycyclopentyl)oxy)isoindolin-1-one]",30 nM,98%
"Cc1nn(C)cc1-c1ccc(CN2Cc3ccnc(O[C@H]4CCC[C@@H]4O)c3C2=O)cc1 (relative stereo) [Example 227, 2-(4-(1,3-dimethyl-1H-pyrazol-4-yl)benzyl)-4-((trans-2-hydroxycyclopentyl)oxy)-1,2-dihydro-3H-pyrrolo[3,4-c]pyridin-3-one]",10 nM,99%
"Cn1cc(-c2ccc(CN3Cc4cccc(O[C@H]5CCC[C@@H]5O)c4C3=O)cc2)nn1 (relative stereo) [Example 235, 7-((trans-2-hydroxycyclopentyl)oxy)-2-(4-(1-methyl-1H-1,2,3-triazol-4-yl)benzyl)isoindolin-1-one]",14 nM,105%
"Cn1ccc(-c2ccc(CN3Cc4ccnc(O[C@H]5CCC[C@@H]5O)c4C3=O)c(F)c2)n1 (relative stereo) [Example 236, 2-(2-fluoro-4-(1-methyl-1H-pyrazol-3-yl)benzyl)-4-((trans-2-hydroxycyclopentyl)oxy)-1,2-dihydro-3H-pyrrolo[3,4-c]pyridin-3-one]",10 nM,109%
"Cn1ccc(-c2ccc(CN3Cc4ccnc(O[C@H]5CCC[C@@H]5O)c4C3=O)cc2)n1 (relative stereo) [Example 237, 4-((trans-2-hydroxycyclopentyl)oxy)-2-(4-(1-methyl-1H-pyrazol-3-yl)benzyl)-1,2-dihydro-3H-pyrrolo[3,4-c]pyridin-3-one]",23 nM,108%
"Cc1nn(C)cc1-c1ccc(CN2Cc3ccnc(O[C@H]4CCCC[C@@H]4O)c3C2=O)cc1 (relative stereo) [Example 267, 2-(4-(1,3-dimethyl-1H-pyrazol-4-yl)benzyl)-4-((trans-2-hydroxycyclohexyl)oxy)-1,2-dihydro-3H-pyrrolo[3,4-c]pyridin-3-one]",2.1 nM,94%
"Cn1ccc(-c2cc(F)c(CN3Cc4ccnc(O[C@H]5CCC[C@@H]5O)c4C3=O)c(F)c2)n1 (relative stereo) [Example 328, 2-(2,6-difluoro-4-(1-methyl-1H-pyrazol-3-yl)benzyl)-4-((trans-2-hydroxycyclopentyl)oxy)-1,2-dihydro-3H-pyrrolo[3,4-c]pyridin-3-one]",6.4 nM,97%
"O=C1c2c(cccc2O[C@H]2CCCC[C@@H]2O)CN1Cc1ccc(-c2ccnnc2)cc1 (relative stereo) [Example 352, 7-((trans-2-hydroxycyclohexyl)oxy)-2-(4-(pyridazin-4-yl)benzyl)isoindolin-1-one]",4.4 nM,94%
"Cc1cc(-c2ccc(CN3Cc4ccnc(O[C@@H]5CCC[C@H]5O)c4C3=O)cc2)ccn1 (single isomer, unassigned) [Example 242, 4-((trans-2-hydroxycyclopentyl)oxy)-2-(4-(2-methylpyridin-4-yl)benzyl)-1,2-dihydro-3H-pyrrolo[3,4-c]pyridin-3-one]",8.2 nM,110%
"Cn1ccc(-c2ccc(CN3Cc4ccnc(OCC5CCCO5)c4C3=O)cc2)n1 (single isomer, unassigned) [Example 245, 2-(4-(1-methyl-1H-pyrazol-3-yl)benzyl)-4-((tetrahydrofuran-2-yl)methoxy)-1,2-dihydro-3H-pyrrolo[3,4-c]pyridin-3-one]",57 nM,101%
"Cc1nn(C)cc1-c1ccc(CN2Cc3cccc(O[C@@H]4CCOC[C@H]4O)c3C2=O)cc1 (single isomer, unassigned) [Example 248, 1,5-anhydro-2-deoxy-3-O-(2-(4-(1,3-dimethyl-1H-pyrazol-4-yl)benzyl)-3-oxo-2,3-dihydro-1H-isoindol-4-yl)-threo-pentitol]",3 nM,117%

# The remaining compounds from weak to strong by EC50, led by results:
EC50,activity (%) at 10 μM,Compound
97 nM,94%,"O=C1c2c(ccnc2O[C@H]2CCCC[C@@H]2O)CN1Cc1cccs1 (relative stereo) [Example 399, 4-((trans-2-hydroxycyclohexyl)oxy)-2-(2-thienylmethyl)-1,2-dihydro-3H-pyrrolo[3,4-c]pyridin-3-one]"
94 nM,118%,"O=C1c2c(ccc(F)c2O[C@H]2CCCC[C@@H]2O)CN1Cc1ccc(-n2cccn2)cc1 (relative stereo) [Example 228, 6-fluoro-7-((trans-2-hydroxycyclohexyl)oxy)-2-(4-(1H-pyrazol-1-yl)benzyl)isoindolin-1-one]"
56 nM,88%,"O=C1c2c(ccnc2O[C@H]2CCCC[C@@H]2O)CN1Cc1ccc(Br)s1 (relative stereo) [Example 400, 2-((5-bromo-2-thienyl)methyl)-4-((trans-2-hydroxycyclohexyl)oxy)-1,2-dihydro-3H-pyrrolo[3,4-c]pyridin-3-one]"
48 nM,92%,"O=C1c2c(ccnc2O[C@H]2CCCC[C@@H]2O)CN1Cc1ccc(Cl)s1 (relative stereo) [Example 401, 2-((5-chloro-2-thienyl)methyl)-4-((trans-2-hydroxycyclohexyl)oxy)-1,2-dihydro-3H-pyrrolo[3,4-c]pyridin-3-one]"
37 nM,104%,"Cc1cc(-c2ccc(CN3Cc4ccnc(O[C@@H]5CCC[C@H]5O)c4C3=O)cc2)ccn1 (single isomer, unassigned) [Example 243, 4-((trans-2-hydroxycyclopentyl)oxy)-2-(4-(2-methylpyridin-4-yl)benzyl)-1,2-dihydro-3H-pyrrolo[3,4-c]pyridin-3-one]"
16 nM,104%,"O=C1c2c(cc(F)cc2O[C@H]2CCCC[C@@H]2O)CN1Cc1ccc(-n2cccn2)cc1 (relative stereo) [Example 244, 5-fluoro-7-((trans-2-hydroxycyclohexyl)oxy)-2-(4-(1H-pyrazol-1-yl)benzyl)isoindolin-1-one]"
9.4 nM,100%,"Cn1ccc(-c2ccc(CN3Cc4ccnc(OCC5CCCO5)c4C3=O)cc2)n1 (single isomer, unassigned) [Example 246, 2-(4-(1-methyl-1H-pyrazol-3-yl)benzyl)-4-((tetrahydrofuran-2-yl)methoxy)-1,2-dihydro-3H-pyrrolo[3,4-c]pyridin-3-one]"
4.6 nM,104%,"Cc1nn(C)cc1-c1ccc(CN2Cc3ccnc(O[C@H]4CCCC[C@@H]4O)c3C2=O)s1 (relative stereo) [Example 402, 2-((5-(1,3-dimethyl-1H-pyrazol-4-yl)-2-thienyl)methyl)-4-((trans-2-hydroxycyclohexyl)oxy)-1,2-dihydro-3H-pyrrolo[3,4-c]pyridin-3-one]"
4.3 nM,95%,"Cc1cc(-c2ccc(CN3Cc4cccc(O[C@H]5CCCC[C@@H]5O)c4C3=O)cc2)cnn1 (relative stereo) [Example 355, 7-((trans-2-hydroxycyclohexyl)oxy)-2-(4-(6-methylpyridazin-4-yl)benzyl)isoindolin-1-one]"
